Assay results: ChEMBL document CHEMBL2062485, “Structural characterization and antimicrobial evaluation of atractyloside, atractyligenin, and 15-didehydroatractyligenin methyl ester” (2012)

Key:
Type in all cases: functional
Staphylococcus aureus [1] = experiment: Antibacterial activity against Staphylococcus aureus […] by MTT assay
Staphylococcus aureus [2] = experiment: Antibacterial activity against epidemic methicillin-resistant Staphylococcus aureus isolate 16 by MTT assay
Staphylococcus aureus [3] = experiment: Antibacterial activity against floroquinilone-resistant Staphylococcus aureus SA1199B by MTT assay
Staphylococcus aureus [4] = experiment: Antibacterial activity against epidemic methicillin-resistant Staphylococcus aureus isolate 15 by MTT assay

Measured: MIC

C=C1C(=O)[C@@]23CC[C@@H]4[C@H](C(=O)OC)C[C@@H](O)C[C@@]4(C)[C@@H]2CC[C@H]1C3
128 µg/mL: all assays above
